Assay results as given in patent US9060952B2, “Synergistic preservative blends” (LONZA LTD., priority 2008, dated 2015).
Read-outs that look alike come from different tables or passages of the source. Blank lines part the entries; values can stand above or below the compound they belong to.

Assays:
Experiment in all cases: Minimum inhibitory concentration (MIC), broth dilution
[1] = test system: P. aeruginosa ATCC 9027; design: species or system Pseudomonas aeruginosa; settings: for MIC: Pseudomonas aeruginosa
Description: (§1) Minimum inhibitory concentrations (MIC) were determined for individual components and binary formulations as follows. Individual bacterial suspensions of S. aureus (gram positive), E. coli and P. aeruginosa (both gram negative) and individual fungal suspensions of C. albicans and A. niger were prepared as described in Example 1. Each individual suspension was standardized with PBDW to yield a ˜10^8 CFU/mL or ˜10^7 cells/mL for the individual bacteria and fungi, respectively.
(§2) The individual components and binary formulations were diluted in either DI water or propylene glycol (as appropriate for solubility) to yield a 10,000 ppm total starting active solution. From the 10,000 ppm solution, a 1:9 dilution was made in sterile Nutrient Broth to yield a 1,000 ppm active solution. Five mL of the 1,000 ppm dilution was transferred to five mL of sterile Nutrient Broth (NB) to yield a 500 ppm active solution. This dilution scheme was repeated down to 3.90 ppm active. The same dilutions were made in sterile Sabouraud Dextrose Broth (SDB) for the fungal MIC testing. The series of nine active solutions (3.9 ppm˜1000 ppm) was prepared for each of the five microorganisms to be tested.
(§3) From the E. coli suspension, 0.1 mL was added to each of the nine, 5-mL active solutions in NB. Each tube was mixed thoroughly. This was repeated for each of the bacterial suspensions. Similarly, 0.1 mL of the C. albicans suspension was added to each of the nine, 5-mL active solutions in SDB. This was repeated with A. niger in a separate set of dilutions. Each tube was mixed thoroughly. Controls were prepared for each organism by inoculating 5 mL of NB or SDB, as appropriate. All three sets of bacterial tubes were incubated at 35° C. for 48 hours and the two sets of fungal tubes were incubated at 30° C. for 72 and 120 hours. At the end of the incubation period, the tubes were mixed and visually inspected for turbidity compared to the control. The lowest concentration with a lack of turbidity was recorded as the Minimum Inhibitory Concentration (MIC).
(§4) The synergism value is (QA/Qa+QB/Qb). QA is the concentration of component A in the mixture, Qa is the concentration of component A applied singly, QB is the concentration of component B in the mixture, Qb is the concentration of component B applied singly. When the synergism value is less than one, the mixture is synergistic. Values for (QA/Qa+QB/Qb) of 1 and greater than 1 represent an additive effect and an antagonistic effect, respectively.

[2] = test system: S. aureus ATCC 6538; design: species or system Staphylococcus aureus; settings: for MIC: Staphylococcus aureus
Description: as §1, §2, §3, §4

[3] = test system: E. coli ATCC 8739; design: species or system Escherichia coli; settings: for MIC: Escherichia coli
Description: as §1, §2, §3, §4

[4] = test system: C. albicans ATCC 10231; design: species or system Candida albicans
Description: as §1, §2
(§5) From the E. coli suspension, 0.1 mL was added to each of the nine, 5-mL active solutions in NB. […] The lowest concentration with a lack of turbidity was recorded as the Minimum Inhibitory Concentration (MIC). […]

[5] = test system: A. niger ATCC 16404; design: species or system Aspergillus niger
Description: as §1, §2, §5

Qa, concentration of component A applied singly (MIC) ([1]; P. aeruginosa): >1000 ppm | Qa, concentration of component A applied singly (MIC) ([2]; S. aureus): >1000 ppm | Qa, concentration of component A applied singly (MIC) ([3]; E. coli): 1000 ppm
Structure (SMILES): CCCCCCC(O)CO (stereo not shown) [Caprylyl Glycol]

MIC ([1]; ATCC9027, P. aeruginosa, read-out: Qa, concentration of component A applied singly (MIC)): > 1000 µg/mL | MIC ([2]; ATCC6538, S. aureus, read-out: Qa, concentration of component A applied singly (MIC)): > 1000 µg/mL | MIC ([3]; ATCC8739, E. coli, read-out: Qa, concentration of component A applied singly (MIC)): > 1000 µg/mL
Structure (SMILES): CCCCCCCCCCCO [Undecanol]

Second part, the compound before the results:

Structure (SMILES): Cn1sccc1=O [Methylisothiazolinone]
Qa, concentration of component A applied singly (MIC) ([1]; P. aeruginosa): 62.5 ppm | Qa, concentration of component A applied singly (MIC) [4]: 250 ppm | Qa, concentration of component A applied singly (MIC) ([2]; S. aureus): 250 ppm | Qa, concentration of component A applied singly (MIC) [5]: 500 ppm | Qa, concentration of component A applied singly (MIC) ([3]; E. coli): 62.5 ppm

Structure (SMILES): Cc1cc(CC(C)CC(C)(C)C)n(O)c(=O)c1.NCCO (stereo not shown) [Piroctone Olamine]
Qb, concentration of component B applied singly (MIC) ([1]; P. aeruginosa): 62.5 ppm | Qb, concentration of component B applied singly (MIC) [4]: 62.5 ppm | Qb, concentration of component B applied singly (MIC) ([2]; S. aureus): 62.5 ppm | Qb, concentration of component B applied singly (MIC) [5]: 62.5 ppm | Qb, concentration of component B applied singly (MIC) ([3]; E. coli): 62.5 ppm

Structure (SMILES): CC(=O)C1C(=O)C=C(C)OC1=O (stereo not shown) [Dehydroacetic acid]
MIC ([1]; ATCC9027, read-out: Qb, concentration of component B applied singly (MIC)): 500 µg/mL | MIC ([2]; ATCC6538, read-out: Qb, concentration of component B applied singly (MIC)): 500 µg/mL | MIC ([3]; ATCC8739, read-out: Qb, concentration of component B applied singly (MIC)): 500 µg/mL
